Experiments:
[1] = Thermal gravimetric analysis (TGA); type: physicochemical; details: TGA under N2, 10° C. min^−1
Text: A) Characterization: The morphology and size distribution of the nf and nfATZ were observed using a field emission scanning electron microscope (FE-SEM; Nova NanoSEM 450, FEI, Hillsboro, USA) and a high-resolution transmission electron microscope (HR-TEM; Tecnai TF20, 200 kV FEG, FEI, Hillsboro, USA). The ζ-potential and particle size distribution of nf and nfATZ were estimated using a PALS zeta potential analyzer (Brookhaven Instruments, Holtsville, USA). The material structural analysis was determined using a Fourier transform infrared spectrometer (FTIR; PerkinElmer, Waltham, USA) and X-ray diffractometer (XRD; PANalytical X'Pert PRO, Malvern Panalytical, Malvern, UK). The interaction between ATZ and EC was analyzed using differential scanning calorimetry (DSC). […]
The nf depicts a shift in Tg from 121° C. to 131º° C. […] The nfATZ recorded a Tg at 125° C.; a shift in the Tg from 131° C. […] Two-stage decomposition temperatures were recorded for pristine EC, 50-95° C., due to loss of moisture (weight loss, 2.9%) and 150-380° C. due to fragmentation of chemical bonds (weight loss, 85%). […] Further, it is observed that nfATZ recorded a broad first derivative peak for the weight loss, which may be due to the merging of two first derivative peaks, one for ATZ and the other for EC.

[2] = In vitro atrazine release from nanoformulations (dialysis); type: physicochemical; details: after 94 hours, DI water, dialysis 12 kDa
Procedure: B) In vitro atrazine release from nanoformulations: A dialysis tubing (MWCO 12 kDa, Sigma-Aldrich, St. Louis, USA) was taken with nfATZ (2 mg), where the total amount of ATZ loaded was 200 μg. In another dialysis tubing, 200 μg of ATZ (bulk form) dispersed in 2 ml of distilled water (DW) with 0.1% w/v sodium azide was taken. These dialysis bags were kept in 18 mL of DW containing sodium azide, and the release studies were done at 37° C. in a shaker bath (SW23, Julabo, Seelbach, Germany) at 50 rpm. At regular intervals, 1 mL of DW was withdrawn and replaced with 1 mL of fresh DW to maintain the sink conditions. The withdrawn DW was analyzed for the amount of ATZ released using a UV-visible spectrophotometer at λmax of 222 nm. […] After 94 hours of release studies, 60% of ATZ was released in the case of plain ATZ, while 22% of ATZ was released from the nfATZ. […] From this observation, it is noted that the another […] of release from the nano-formulation can extend up to 30 days. From these studies, inventors concluded that the nanoformulations is the best choice to control the weeds for an extended period, which can be manipulated as desired by changing concentration of EC and ATZ.

CCNc1nc(Cl)nc(NC(C)C)n1 [plain ATZ, Atrazine]
maximum degradation temperature [1]: 230 °C | ATZ released [2]: 60%
